Laboratory results as given in article PMC5429621 (Scientific Reports, 2017).

Columns and labels:
[1] = test system: hP2X7-2Nβ 74–79 C mutants; experiment: two-electrode voltage clamp, Xenopus oocytes; type: cell-based, human; details: response to EC90 ATP
Description: (§1) The hP2X1R was a gift from Dr Lin-Hua Jiang (University of Leeds, UK) and the hP2X1R cDNA has been described previously. Chimeras were generated by megaprimer-mediated domain swapping. In addition to chimeras, point mutations, deletions and insertions were made using the QuikChange (Stratagene) or Q5 (New England Bioscience) mutagenesis kits. The production of the correct mutations and absence of coding errors was verified by DNA sequencing (Automated ABI Sequencing Service, University of Leicester, UK).
P2XR constructs were transcribed to produce sense-strand cRNA (mMessage mMachine, Ambion, Austin, TX). […]
Two-electrode voltage clamp recordings were carried out using a GeneClamp 500B amplifier with a Digidata 1322 A analog to digital convertor and pCLAMP 8.2 acquisition software (Molecular Devices, Menolo Park, CA) at a holding potential of −60 mV. ATP (sodium salt, Sigma) was applied via a U-tube perfusion system for 3 s at 3–5 minute intervals to allow reproducible responses to be recorded. […]
Concentration response curves were normalized to the maximal response and fitted with the Hill equation (variable slope) with GraphPad Prism 6 (Graphpad software, San Diego, CA). […] Any significant differences were calculated by one-way analysis of variance, followed by Bonferroni’s test (using GraphPad Prism 6). […]

[2] = test system: other P2XR subtypes; details: cited from earlier work
[3] = test system: tumour growth; design: method as in PMID 22505653; details: cited from earlier work
[4] = biological target: T1, hP2X7-2Nβ K110Y (Homo sapiens, UniProt Q99572, I21V/K110Y/M24R/N16P/N25R/Q22R/R20V/S23N/T19I/Y26L); experiment: two-electrode voltage clamp, Xenopus oocytes; type: cell-based; details: relative to P2X7-2Nβ
T1 construct: expressed in transfected cells; host or cells: Xenopus laevis oocytes (cRNA injection)
T1 sequence (Q99572 1-595 N16P/T19I/R20V/I21V/Q22R/S23N/M24R/N25R/Y26L/K110Y): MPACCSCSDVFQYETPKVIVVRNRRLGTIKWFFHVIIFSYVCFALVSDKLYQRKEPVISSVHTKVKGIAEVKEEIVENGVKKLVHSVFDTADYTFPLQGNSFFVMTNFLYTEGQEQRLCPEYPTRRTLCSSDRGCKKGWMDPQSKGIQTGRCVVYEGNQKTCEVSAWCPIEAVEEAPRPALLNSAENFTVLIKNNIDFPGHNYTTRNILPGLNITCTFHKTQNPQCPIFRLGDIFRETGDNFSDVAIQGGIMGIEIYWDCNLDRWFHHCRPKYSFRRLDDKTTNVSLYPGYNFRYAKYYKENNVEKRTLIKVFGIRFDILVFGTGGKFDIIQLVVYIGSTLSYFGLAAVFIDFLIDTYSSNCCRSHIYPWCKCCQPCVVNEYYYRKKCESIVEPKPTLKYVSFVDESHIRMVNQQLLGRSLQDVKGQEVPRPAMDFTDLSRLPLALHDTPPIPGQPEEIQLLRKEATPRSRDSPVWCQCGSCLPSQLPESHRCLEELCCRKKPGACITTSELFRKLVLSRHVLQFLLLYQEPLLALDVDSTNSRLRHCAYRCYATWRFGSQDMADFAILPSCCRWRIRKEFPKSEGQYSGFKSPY
Description: as §1
P2XR constructs were transcribed to produce sense-strand cRNA (mMessage mMachine, Ambion, Austin, TX). Manually defoliculated stage V Xenopus laevis oocytes were injected with 50 nl (50 ng) of cRNA using an Inject + Matic microinjector (J.A. Gaby, InjectMatic, Geneva, Switzerland) and stored at 16 °C in ND96 buffer (in mM, NaCl 96, KCl 2, CaCl2 1.8, MgCl2 1, sodium pyruvate 5, HEPES 5 (pH 7.6) supplemented with 50 µg/ml gentamycin and 50 µg/ml tetracycline). For electrophysiological recordings (3–7 days post-injection) oocytes were bathed in divalent free ND96 buffer (in mM, NaCl 96, KCl 2, sodium pyruvate 5, HEPES 5 and 0.1 flufenamic acid, pH 7.6).
ATP (sodium salt, Sigma) was applied via a U-tube perfusion system for 3 s at 3–5 minute intervals to allow reproducible responses to be recorded. […] To standardize for any change in ATP sensitivity at mutant receptors antagonists were co-applied with an EC90 concentration of ATP.
Concentration response curves were normalized to the maximal response and fitted with the Hill equation (variable slope) with GraphPad Prism 6 (Graphpad software, San Diego, CA). […] Individual concentration response curves were generated for individual experiments and statistical analysis was carried out on the data generated. In the figures the inhibition curves are fitted to the mean normalized data. Any significant differences were calculated by one-way analysis of variance, followed by Bonferroni’s test (using GraphPad Prism 6). Data are shown as mean ± SEM.

[5] = biological target: T2, P2X7 73–79 deletion mutant (hP2X7-2Nβ background) (Homo sapiens, UniProt Q99572, DEL73-79/I21V/M24R/N16P/N25R/Q22R/R20V/S23N/T19I/Y26L); experiment: two-electrode voltage clamp, Xenopus oocytes; type: cell-based
T2 construct: expressed in transfected cells; host or cells: Xenopus laevis oocytes (cRNA injected)
T2 sequence (Q99572 with tags, fused parts or gaps N16P/T19I/R20V/I21V/Q22R/S23N/M24R/N25R/Y26L/DEL73-79): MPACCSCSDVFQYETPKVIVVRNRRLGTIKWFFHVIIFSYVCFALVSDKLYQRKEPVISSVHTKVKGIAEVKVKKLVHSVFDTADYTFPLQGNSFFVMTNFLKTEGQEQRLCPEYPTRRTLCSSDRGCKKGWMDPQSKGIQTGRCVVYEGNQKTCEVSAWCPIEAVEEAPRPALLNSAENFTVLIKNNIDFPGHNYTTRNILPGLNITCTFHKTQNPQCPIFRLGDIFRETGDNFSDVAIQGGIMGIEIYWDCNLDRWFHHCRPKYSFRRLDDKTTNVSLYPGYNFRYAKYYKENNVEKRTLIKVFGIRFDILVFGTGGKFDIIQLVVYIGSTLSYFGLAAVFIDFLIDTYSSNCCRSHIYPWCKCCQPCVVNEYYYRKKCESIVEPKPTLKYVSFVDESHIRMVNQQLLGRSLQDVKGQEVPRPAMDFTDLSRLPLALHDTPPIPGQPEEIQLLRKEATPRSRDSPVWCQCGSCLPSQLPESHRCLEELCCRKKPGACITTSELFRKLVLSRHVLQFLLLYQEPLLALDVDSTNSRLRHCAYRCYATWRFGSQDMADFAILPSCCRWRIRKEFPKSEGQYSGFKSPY

Compound	level of inhibition to 30 nM AZ10606120 [1]	effect at other P2XR subtypes [2]	effect of AZ10606120 treatment in animal studies (tumour) [3]	increase in sensitivity to AZ10606120 [4]	increase in ATP sensitivity ([5]; 73–79 del, relative to P2X7-2Nβ)	Peak amplitude ([5]; 73–79 delete, maximal ATP) [μA]
Cl.Cl.O=C(CC12CC3CC(CC(C3)C1)C2)Nc1cccc2nc(NCCNCCO)ccc12 [AZ10606120, N-[2-[[2-[(2-Hydroxyethyl)amino]ethyl]amino]-5-quinolinyl]-2-tricyclo[3.3.1.13,7]dec-1-ylacetamide dihydrochloride]	~ 70%	little or no effect	reduced tumour growth	~ 100 fold	–	–
Nc1ncnc2c1ncn2[C@@H]1O[C@H](COP(=O)(O)OP(=O)(O)OP(=O)(O)O)[C@@H](O)[C@H]1O [ATP]	–	–	–	–	2–3 fold	2.05 ± 0.23
